Results reported in US7199082B1, “Methods for extending the freshness of cut flowers, ornamental trees, and plant cuttings” (University of North Texas, priority 1999, dated 2007).
Where two headings read alike, the source gives them in different places.

Key:
[1] = system: long-stem pink roses; test: Appearance of long-stem pink roses; assay type: in vivo, rose; parameters: key to Roses appearance (mark): *: Best Appearance; settings: after 7 days; for Size of Flower Bloom (Cross-Sectional Width at Tip): 2 ml of test solution at day zero, in water
[2] = target: cabbage PLD α (Brassica oleracea var. capitata, UniProt P55939); test: NAE inhibition of highly purified cabbage PLD α; settings: for remaining activity at 1 µM: read-out: cabbage PLD activity, % of the control; for inhibition of cabbage PLD α: submicromolar to low micromolar amounts (FIG. 6)
Chain of cabbage PLD α (P55939 37-812): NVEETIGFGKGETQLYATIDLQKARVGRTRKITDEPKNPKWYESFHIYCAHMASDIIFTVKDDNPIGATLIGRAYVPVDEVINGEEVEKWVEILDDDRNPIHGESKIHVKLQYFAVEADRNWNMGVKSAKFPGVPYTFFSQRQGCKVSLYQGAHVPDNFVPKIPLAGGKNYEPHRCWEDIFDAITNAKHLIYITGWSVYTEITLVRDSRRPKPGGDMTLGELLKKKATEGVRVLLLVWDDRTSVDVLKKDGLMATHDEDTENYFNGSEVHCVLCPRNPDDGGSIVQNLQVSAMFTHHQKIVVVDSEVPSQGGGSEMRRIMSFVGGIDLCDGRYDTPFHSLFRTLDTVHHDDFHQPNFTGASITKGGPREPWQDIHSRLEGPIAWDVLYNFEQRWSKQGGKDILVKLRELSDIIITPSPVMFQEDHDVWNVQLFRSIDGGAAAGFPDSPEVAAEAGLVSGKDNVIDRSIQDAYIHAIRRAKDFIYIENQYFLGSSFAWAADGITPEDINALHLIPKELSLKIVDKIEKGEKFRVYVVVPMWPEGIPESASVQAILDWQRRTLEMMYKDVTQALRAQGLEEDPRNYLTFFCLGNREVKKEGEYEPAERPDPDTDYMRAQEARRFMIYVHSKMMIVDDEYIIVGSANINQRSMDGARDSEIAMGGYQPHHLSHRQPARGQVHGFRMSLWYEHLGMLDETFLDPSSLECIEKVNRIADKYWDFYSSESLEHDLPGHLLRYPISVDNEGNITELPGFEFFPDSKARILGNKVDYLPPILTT

[3] = system: red Gerber daisy; test: Days before wilting and petal collapse, random blind comparison
[4] = target: castor bean PLD α (Ricinus communis, UniProt Q41142); test: biochemical; assay type: biochemical
Chain of castor bean PLD α (Q41142 31-808 limits assumed): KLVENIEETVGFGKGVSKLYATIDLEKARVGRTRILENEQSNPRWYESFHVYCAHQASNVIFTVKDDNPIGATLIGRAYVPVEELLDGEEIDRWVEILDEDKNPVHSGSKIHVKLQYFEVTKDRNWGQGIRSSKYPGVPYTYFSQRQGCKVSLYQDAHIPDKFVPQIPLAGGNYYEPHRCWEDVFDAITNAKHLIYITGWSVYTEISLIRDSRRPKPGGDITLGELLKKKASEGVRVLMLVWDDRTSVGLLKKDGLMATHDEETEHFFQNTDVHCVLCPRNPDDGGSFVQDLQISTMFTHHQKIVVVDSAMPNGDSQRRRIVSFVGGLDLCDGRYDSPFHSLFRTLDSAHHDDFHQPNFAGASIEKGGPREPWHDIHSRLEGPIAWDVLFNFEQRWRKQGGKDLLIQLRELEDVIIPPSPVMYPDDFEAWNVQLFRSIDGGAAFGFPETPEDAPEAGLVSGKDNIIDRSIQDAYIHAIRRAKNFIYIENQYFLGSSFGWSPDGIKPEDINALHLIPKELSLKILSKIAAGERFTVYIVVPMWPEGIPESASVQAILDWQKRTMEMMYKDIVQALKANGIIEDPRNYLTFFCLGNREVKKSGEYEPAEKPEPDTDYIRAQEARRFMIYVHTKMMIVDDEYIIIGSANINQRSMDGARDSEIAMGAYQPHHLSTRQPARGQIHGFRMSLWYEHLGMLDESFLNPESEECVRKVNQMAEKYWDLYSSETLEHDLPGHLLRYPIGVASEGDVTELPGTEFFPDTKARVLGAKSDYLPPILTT

[5] = system: carnations; test: Appearance of carnation blooms (brown petals, corolla size); assay type: in vivo; settings: after 14 days
Description: In related studies, the appearance of visible signs of senescence (brown petals) and size of the carnation corolla were evaluated at different concentrations of NAE12:0 (Table 4).

[6] = system: white carnation; test: Stem wilt of cut carnations (angle of declination at nodes below flower head); assay type: in vivo; settings: for Angle of bend of stem, 2nd Node Below Flower / Angle of bend of stem, 3rd Node Below Flower: after 14 days, single stems separated by /
Description: Because NAE inhibited PLD cc activity in vitro, and because PLD activity has been associated with cellular damage in senescing plant tissues, the effect of NAE-containing solutions was tested as senescence-delaying agents for cut flowers. Several parameters were examined with carnations, stem wilt, and flower cross-sectional width and appearance. For stem wilt, the angle of declination at the second and third nodes from the flower head was measured from photographs taken at 14 days after treatments (Table 3). Flowers were either dipped in agar, or not, then dipped into water or NAE 12:0 at 0.1 mM. The larger the angle reported, the greater the wilt or bend of the stem.

[7] = system: S. chromofuscus PLD; test: NAE effect on S. chromofuscus PLD (production of radiolabeled phosphatidic acid); settings: submicromolar to low micromolar amounts (FIG. 6)
[8] = Solubility of NAEs and NAE formulations in aqueous solutions; assay type: physicochemical; settings: longer acyl chain NAEs in the formulations
[9] = system: PLD; settings: Ryu et al., 1997; cited from earlier work
[10] = agar-dipped stem in 0.1 mM NAE 12:0 (n = 2)

CCCCCCCCCCCC(=O)NCCO [NAE12:0, N-lauroylethanolamine]
Size of Flower Bloom (Cross-Sectional Width at Tip) ([1]; 0.0004 mM): 1.0 cm | Size of Flower Bloom (Cross-Sectional Width at Tip) ([1]; 0.004 mM): 2.3 cm | Roses appearance (mark) ([1]; 0.004 mM): * | Size of Flower Bloom (Cross-Sectional Width at Tip) ([1]; 0.04 mM): 1.8 cm | Roses appearance (mark) ([1]; 0.04 mM): * | Size of Flower Bloom (Cross-Sectional Width at Tip) ([1]; 0.4 mM): 1.8 cm | Roses appearance ([1]; cell spans the NAE columns 0.0004 mM to 0.4 mM): NICE APPEARANCE | remaining activity at 1 µM [2]: 37% | inhibition of cabbage PLD α [2]: effective inhibitors | prevention of petal collapse versus water or Aquaplus ([3]; 0.2 mM, blind comparison): far superior in preventing petal collapse | Number of Days Before Wilting ([3]; NAE 12:0 0.2 mM aqueous solution, Aquaplus dissolved in water according to manufacturer's instructions): 12 days | IC50 [4]: 0.13 µM | castor bean PLD α activity [4]: no activity | Size of Flower Bloom (Cross-Sectional Width) ([5]; 0.0004 mM): 2.6 cm | Size of Flower Bloom (Cross-Sectional Width) ([5]; 0.004 mM): 3.0 cm | visible signs of flower senescence ([5]; 0.04 mM): little evidence of flower senescence | Size of Flower Bloom (Cross-Sectional Width) ([5]; 0.040 mM): 3.3 cm | Size of Flower Bloom (Cross-Sectional Width) ([5]; 0.4 mM): 3.1 cm | freshness of carnation stems ([6]; 0.1 mM, 14 days after treatments): provided extended freshness to carnation stems | Angle of bend of stem, 2nd Node Below Flower ([6]; NAE 12:0 only 0.1 mM (n = 3)): 8/16/12 | Angle of bend of stem, 3rd Node Below Flower ([6]; NAE 12:0 only 0.1 mM (n = 3)): 8/12/11 | Angle of bend of stem, 2nd Node Below Flower [6, 10]: 27/42 | Angle of bend of stem, 3rd Node Below Flower [6, 10]: 31/13 | inhibition of S. chromofuscus PLD [7]: but not of S. chromofuscus PLD

CCCCCCCCCCCCCC(=O)NCCO [NAE14:0, N-myristoylethanolamine]
apparent Vmax ([2]; in the presence of 0.01 μM NAE14:0): 11.1 μmol min^−1 mg^−1 protein | type of inhibition ([2]; increasing substrate concentration (PC), FIG. 7): noncompetitive inhibition | remaining activity at 1 µM [2]: 22% | inhibition of cabbage PLD α [2]: effective inhibitors | IC50 [4]: 0.1 µM | castor bean PLD α activity [4]: no activity | type of inhibition [4]: noncompetitive binding | inhibition of S. chromofuscus PLD [7]: but not of S. chromofuscus PLD

CCCCCCCCCCCCCCCC(=O)NCCO [NAE16:0, N-palmitoylethanolamine]
solubility in water [8]: limited solubility in water | IC50 [4]: 5 µM

CCCCCCCCCCCCCCCCCC(=O)NCCO [NAE18:0, N-stearoylethanolamine]
solubility in water [8]: limited solubility in water | IC50 [4]: 10 µM

CCCCC/C=C\C/C=C\CCCCCCCC(=O)NCCO [NAE18:2, N-linoleoylethanolamine]
IC50 [4]: 30 µM

CC/C=C\C/C=C\C/C=C\CCCCCCCC(=O)NCCO [NAE18:3, N-linolenoylethanolamine]
IC50 ([4]; read-out: IC50 Values): 80 µM

CCCCCCCCCCCCCCCCCCCC(=O)NCCO [NAE20:0, N-arachidoylethanolamine]
solubility in water [8]: limited solubility in water

NCCO [ethanolamine]
inhibitory effect on PLD [9]: no inhibitory effect

CCCCCCCCCCCCCC(=O)O [myristic acid, reference compound]
cabbage PLD activity ([2]; in the presence of 10 μM): unchanged
